Reference: patent publication EP0745595A1, “3-(3-Aryloxyphenyl)-1-(substituted methyl)-s-triazine-2,4,6-oxo or thiotrione herbicidal agents” (American Cyanamid Company, priority 1995, dated 1996)

Legend:
Format in all cases: in vivo
[1] = test system: CYPERUS SEROTINUS, ROTTB.; assay: Preemergence weed control under flooded paddy conditions, CYPSE (Flatsedge); details: preemergence, 3-4 weeks after treatment
Outline: (§1)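 Visual 0-9 score (stand, vigor, malformation, size, chlorosis, appearance vs untreated control) taken 3-4 wk after treatment. Test compounds were added into flood water (1.5-3 cm over silt loam) as 50/50 v/v aqueous/acetone, equivalent to about 0.5-0.063 kg/ha a.i.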

[2] = test system: SETARIA VIRIDIS, (L) BEAU; assay: Preemergence herbicidal evaluation, SETVI (Foxtail, Green); details: rated four to five weeks after treatment
Excerpt: (§2) Results of herbicide evaluation are expressed on a rating scale (0-9). The scale is based upon a visual observation of plant stand, vigor, malformation, size, chlorosis and overall plant appearance as compared with a control.
(§3) The preemergence herbicidal activity of the test compounds of the present invention is exemplified by the following tests in which the seeds of a variety of monocotyledonous and dicotyledonous plants are separately mixed with potting soil and planted on top of approximately one inch of soil in separate pint cups. […] The treated cups are then placed on greenhouse benches, watered and cared for in accordance with conventional greenhouse procedures. From four to five weeks after treatment, the tests are terminated and each cup is examined and rated according to the rating system provided in Example 40.
(§4) The compounds evaluated are reported by compound number given in Example 40.

[3] = test system: AMBROSIA ARTEMISIIFOLIA, L.; assay: Preemergence herbicidal evaluation, AMBEL (Ragweed, Common); details: rated four to five weeks after treatment
Outline: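 Seeds sown in potting soil cups, then sprayed preemergence with aqueous acetone compound solution at about 0.125 to 0.50 kg per hectare. Greenhouse-grown, rated 4–5 weeks after treatment on a 0–9 visual scale against control.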

CYPERUS IRIA = assay: Preemergence weed control under flooded paddy conditions, CYPIR (Rice Flatsedge); details: preemergence, 3-4 weeks after treatment
Outline: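 This preemergence test mimicked flooded paddy conditions: rice flatsedge propagules were sown in the upper 0.5 cm of silt loam in undrained 32 oz. containers (10.5 cm diameter), with water held 1.5 to 3 cm over the soil. After normal greenhouse care, plants were scored 0-9 for stand, vigor, malformation, size, chlorosis and appearance relative to controls.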

CASSIA OBTUSIFOLIA, L. = assay: Preemergence herbicidal evaluation, CASOB (Sicklepod); details: rated four to five weeks after treatment
Outline: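 Preemergence herbicidal activity against sicklepod was assessed by planting seed mixed with potting soil atop about one inch of soil in pint cups. After treatment the cups were watered and handled per standard greenhouse practice. Tests ended four to five weeks later, with plant stand, vigor, malformation, size, chlorosis and overall appearance scored 0-9 relative to a control.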

IPOMOEA SPP. = assay: Preemergence herbicidal evaluation, IPOSS (Morningglory spp.); details: rated four to five weeks after treatment
Excerpt: as §2, §3, §4

[4] = test system: ORYZA SATIVA, L. TEBONNET; assay: Rice tolerance to post-transplant applications under flooded paddy conditions, ORYSAT (Rice, Tebonnet); details: post-transplant rice, 3-4 weeks after treatment
Outline: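 Visual 0-9 rating against untreated control (stand, vigor, malformation, size, chlorosis, overall appearance), taken 3-4 weeks after treatment. Flooded silt loam, water at 1.5-3 cm; two 10-day-old seedlings per pot; compound applied to flooded soil surface 3 days post-transplant at ~0.5-0.063 kg/ha.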

[5] = test system: ABUTILON THEOPHRASTI, MEDIC.; assay: Preemergence herbicidal evaluation, ABUTH (Velvetleaf); details: rated four to five weeks after treatment
Excerpt: as §2, §3, §4

SAGITTARIA PYGMAEA, L. = assay: Preemergence weed control under flooded paddy conditions, SAGPY (Arrowhead (Pygmaea)); details: preemergence, 3-4 weeks after treatment
Outline: as §1

[6] = test system: ECHINOCHLOA CRUS-GALLI, (L) BEAU; assay: Preemergence herbicidal evaluation, ECHCG (Barnyardgrass); details: rated four to five weeks after treatment
Outline: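 In this preemergence herbicide test, cups holding seeds of ECHCG sown in potting soil over roughly one inch of soil were treated and then grown under conventional greenhouse care. Tests were ended four to five weeks after treatment, and injury was scored 0-9 from stand, vigor, malformation, size, chlorosis and overall appearance relative to a control.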

COC(=O)Cn1c(=O)n(C)c(=O)n(-c2cc(Oc3c(Cl)cccc3Cl)ccc2[N+](=O)[O-])c1=O [Compound 37, Methyl 3-[5-(2,6-dichlorophenoxy)-2-nitrophenyl]tetrahydro-5-methyl-2,4,6-trioxo-s-triazine-1(2H)-acetate]
2.0: Herbicidal effect rating, ORYSAT ([4]; 0.500 kg/ha)
0.0: Herbicidal effect rating, CYPSE ([1]; 0.063 kg/ha) | Herbicidal effect rating, CYPSE ([1]; 0.125 kg/ha) | Herbicidal effect rating, CYPSE ([1]; 0.250 kg/ha) | Herbicidal effect rating, CYPSE ([1]; 0.500 kg/ha) | SETVI herbicidal rating ([2]; Rate 0.125 kg/ha) | SETVI herbicidal rating ([2]; Rate 0.250 kg/ha) | SETVI herbicidal rating ([2]; Rate 0.500 kg/ha) | AMBEL herbicidal rating ([3]; Rate 0.125 kg/ha) | AMBEL herbicidal rating ([3]; Rate 0.250 kg/ha) | AMBEL herbicidal rating ([3]; Rate 0.500 kg/ha) | Herbicidal effect rating, CYPIR (CYPERUS IRIA; 0.063 kg/ha) | Herbicidal effect rating, CYPIR (CYPERUS IRIA; 0.125 kg/ha) | Herbicidal effect rating, CYPIR (CYPERUS IRIA; 0.250 kg/ha) | Herbicidal effect rating, CYPIR (CYPERUS IRIA; 0.500 kg/ha) | CASOB herbicidal rating (CASSIA OBTUSIFOLIA, L.; Rate 0.125 kg/ha) | CASOB herbicidal rating (CASSIA OBTUSIFOLIA, L.; Rate 0.250 kg/ha) | CASOB herbicidal rating (CASSIA OBTUSIFOLIA, L.; Rate 0.500 kg/ha) | IPOSS herbicidal rating (IPOMOEA SPP.; Rate 0.125 kg/ha) | IPOSS herbicidal rating (IPOMOEA SPP.; Rate 0.250 kg/ha) | IPOSS herbicidal rating (IPOMOEA SPP.; Rate 0.500 kg/ha) | Herbicidal effect rating, ORYSAT ([4]; 0.063 kg/ha) | ABUTH herbicidal rating ([5]; Rate 0.125 kg/ha) | ABUTH herbicidal rating ([5]; Rate 0.250 kg/ha) | ABUTH herbicidal rating ([5]; Rate 0.500 kg/ha) | Herbicidal effect rating, SAGPY (SAGITTARIA PYGMAEA, L.; 0.063 kg/ha) | Herbicidal effect rating, SAGPY (SAGITTARIA PYGMAEA, L.; 0.125 kg/ha) | Herbicidal effect rating, SAGPY (SAGITTARIA PYGMAEA, L.; 0.250 kg/ha) | Herbicidal effect rating, SAGPY (SAGITTARIA PYGMAEA, L.; 0.500 kg/ha) | ECHCG herbicidal rating ([6]; Rate 0.125 kg/ha) | ECHCG herbicidal rating ([6]; Rate 0.250 kg/ha) | ECHCG herbicidal rating ([6]; Rate 0.500 kg/ha)
1.0: Herbicidal effect rating, ORYSAT ([4]; 0.125 kg/ha) | Herbicidal effect rating, ORYSAT ([4]; 0.250 kg/ha)
